Among the test systems are T-47D breast; CAKI-1 renal; HT29 colon; U251 CNS; OVCAR-4 ovarian; TK-10 renal; COLO 205 colon; OVCAR-5 ovarian; HOP-62 NSCLC; SF-295 CNS.
Common to all, as to assay: NCI anticancer screen, dose series, 48 h

TGI and GI50 data for three compounds are collected here from PubChem BioAssay (NCI).

Where “and” joins values, the source holds several entries; their conditions need not be identical. Identical values can stand only once.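 How tested: cells in 96-well plates exposed to compound for 48 hours at five concentrations. GI50 marks 50% less growth. TGI: total growth inhibition.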

Consider `C/C(=N\NC(=S)N1CCN(C2CCCCCC2)CC1)c1ccccn1`, for which the TGI in the experiment on T-47D breast was 2.22 µM; in the experiment on CAKI-1 renal, 3.5 µM; in the experiment on HT29 colon it was 1.84 µM; with U251 CNS, 3 µM and 2.1 µM; in the experiment on OVCAR-4 ovarian, 3.12 µM; in the experiment on TK-10 renal, 3.34 µM. Moreover, the TGI in the experiment with COLO 205 colon is 1.48 µM; in the experiment with OVCAR-5 ovarian, 3.01 µM; with HOP-62 NSCLC it was 1.41 µM; in the experiment on SF-295 CNS it was 5.67 µM and 2.91 µM. For the same compound, the GI50 is 0.155 µM in the experiment with CAKI-1 renal; less than 0.001 µM with U251 CNS; 0.42 µM in the experiment with TK-10 renal; 0.0198 µM and < 0.0156 µM with HOP-62 NSCLC; 0.00302 µM in the experiment with SF-295 CNS.
Take `CC(=O)OC12c3ccccc3-c3ccccc3C1C(C(=O)O)C2(Cl)C(=O)O` (stereo not given): the TGI in the experiment on T-47D breast, with CAKI-1 renal, with HT29 colon, with U251 CNS, with OVCAR-4 ovarian and with TK-10 renal was more than 10 µM in each case. Moreover, the TGI with COLO 205 colon, in the experiment on OVCAR-5 ovarian, in the experiment on HOP-62 NSCLC and with SF-295 CNS was more than 10 µM in each case.
For the compound `C=C1CC[C@@H]2[C@](C)(COC(C)=O)[C@H](OC(C)=O)CC[C@@]2(C)[C@@H]1CC(Nc1ccc(S(=O)(=O)Nc2cc(C)on2)cc1)C1=CCOC1=O` (stereo not given in full), the GI50 was 2.8 µM with T-47D breast; 4.14 µM in the experiment with CAKI-1 renal; 1.58 µM with HT29 colon; 1.89 µM in the experiment with U251 CNS; 2.91 µM in the experiment with OVCAR-4 ovarian; 3.04 µM with TK-10 renal. Moreover, the GI50 in the experiment on COLO 205 colon was 1.97 µM; with OVCAR-5 ovarian it was 2.16 µM; in the experiment with HOP-62 NSCLC it was 8.88 µM; in the experiment on SF-295 CNS it was 8.13 µM. Also, the TGI with T-47D breast is 7.37 µM; in the experiment on CAKI-1 renal, 14.7 µM; in the experiment on HT29 colon, 3.09 µM; with U251 CNS, 3.4 µM; with OVCAR-4 ovarian, 10.5 µM; in the experiment with TK-10 renal, 7.11 µM. Further, the TGI in the experiment with COLO 205 colon turned out to be 4.34 µM; with OVCAR-5 ovarian, 4.05 µM; in the experiment with HOP-62 NSCLC it was 22.9 µM; with SF-295 CNS it was 21 µM.
